Reference: patent publication US20260294874A1, “COMPOSITIONS COMPRISING MODULATORS OF RIBONUCLEOPROTEIN GRANULE FORMATION AND DISSOLUTION AND METHODS OF USE THEREOF” (University of Virginia Patent Foundation, priority 2023, published 2026)
Where “and” joins values, the source holds several entries; their conditions need not be identical. Equal entries are not always repeated. Entries after “also recorded” stand apart in the source; their conditions may differ. Where two headings read alike, the source gives them in different places.

Target: T1, recombinant EDC3 (Homo sapiens, UniProt Q96F86)
T1 construct: FLAG; expressed in transfected cells; host or cells: HEK293T
T1 sequence (Q96F86 1-508): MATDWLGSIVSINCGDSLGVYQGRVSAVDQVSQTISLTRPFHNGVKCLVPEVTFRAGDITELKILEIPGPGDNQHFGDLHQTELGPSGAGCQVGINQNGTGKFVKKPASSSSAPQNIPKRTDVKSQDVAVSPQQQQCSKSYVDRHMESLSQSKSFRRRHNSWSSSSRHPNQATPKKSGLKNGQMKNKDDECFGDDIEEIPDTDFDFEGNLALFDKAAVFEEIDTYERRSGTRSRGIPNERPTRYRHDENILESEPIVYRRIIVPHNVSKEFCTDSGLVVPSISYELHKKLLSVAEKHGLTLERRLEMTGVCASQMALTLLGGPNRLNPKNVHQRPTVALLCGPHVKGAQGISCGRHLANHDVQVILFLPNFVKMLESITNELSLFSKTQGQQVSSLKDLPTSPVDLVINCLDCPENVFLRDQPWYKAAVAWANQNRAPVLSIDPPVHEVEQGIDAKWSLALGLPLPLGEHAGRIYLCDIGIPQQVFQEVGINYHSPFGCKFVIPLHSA
Assay: Competitive gel-based ABPP, HHS-465 probe labeling of recombinant EDC3 in HEK293T cells
Format: cell-based
Conditions: for inhibition of HHS-465 probe labeling of recombinant EDC3 (in words): 25 μM, 2 h (FIG. 4F), 0.1-100 μM for concentration dependence (FIG. 4D)
Source text: FIGS. 4A-4F. Discovery of a SuTEx ligand for the hyper-reactive EDC3 Y475 site. (FIG. 4A) Overlap of liganded sites from SuTEx PB modulators with reported RNA granule induction-sensitive lysine and tyrosine sites (RISKYs; Ciancone et al., 2022). The five overlapping sites were further compared to previously reported hyper-RISKY sites (Ciancone et al., 2022) resulting in the identification of the tyrosine-475 (Y475) site on EDC3. (FIG. 4B) Representative immunofluorescence images depicting decreased PBs and increased SGs in AHL-030-treated cells under stress conditions. EKT235 is shown as a negative control. See FIGS. 8 and 9 for additional details. (FIG. 4C) Representative MS1 extracted ion chromatograms (EICs) showing EDC3 Y475 (i.e., amino acid 2 of the peptide sequence […]; SEQ ID NO: 1, which corresponds to amino acids 474-500 of the human enhancer of mRNA-decapping protein 3 isoform 1 polypeptide of GENBANK® Accession No. NP_001135915.1) is liganded by AHL-030 but not EKT235 [SILAC ratio or SR>2 for DMSO vehicle (light, red)/SuTEx fragment ligand (heavy, blue) treatment conditions]. Enrichment (HHS-465/DMSO) and 1:1 (HHS-465/HHS-465) controls are shown. SRs are calculated as the integrated area under the curve ratio of light-to-heavy peptide. Data are representative of n=2-3 biologically independent replicates. […] EDC3-expressing HEK293T cells were pretreated with varying concentrations of AHL-030 (0.1-100 μM, 2 hours) followed by lysis and probe labeling of soluble proteomes with HHS-465 (100 μM, 1 h, RT). The in situ IC50 for EDC3 probe labeling inhibition by AHL-030 was estimated to be ~6 μM. […] Data shown are mean±SEM and representative of n=3 biologically independent replicates. […] Western blots comparing recombinant expression of EDC3 (α-FLAG) and loading controls (α-GAPDH) are shown. Data are representative of n=2 biologically independent replicates.
Among the candidate PB-modulating SuTEx compounds, we focused on AHL-030 because of its PB-inhibitory, SG-enhancing activity in stressed cells and ability to ligand the EDC3 Y475 site (SR >2; FIGS. 4B and 4C). Importantly, we identified a restricted number of reproducibly liganded sites (7 in total) in addition to EDC3 Y475 in chemoproteomic profiling studies of AHL-030 (FIG. 12). We further confirmed AHL-030 as an EDC3 ligand using competitive activity-based protein profiling (ABPP; Grams & Hsu, 2022). Recombinant EDC3-expressing HEK293T cells were treated with a panel of RNP granule modulators including AHL-030 and the negative control compound EKT235 to evaluate structure-activity relationships (SAR, 25 μM compounds, 2 h). Cells were lysed and soluble proteomes labeled with HHS-465 (100 μM, 1 h, RT) followed by CuAAC with rhodamine-azide, SDS-PAGE and in-gel fluorescence scanning. […] Using the in vitro IC50, we calculated the lipophilic efficiency (LipE) of AHL-030 to be ~7, which falls in the range of acceptable lipophilicity in relation to potency (Leeson & Springthorpe, 2007).

Compound | inhibition of HHS-465 probe labeling of recombinant EDC3 (in words) (HHS-465 100 μM, 1 h, RT) | pIC50/EC50: pIC50 (AHL-030, used for LipE) | IC50 (IC50 (AHL-030), EDC3 probe labeling, read-out: IC50/EC50 (M): IC50) | IC50 (in situ, 0.1-100 μM, 2 h, HHS-465 100 μM, 1 h, RT, n=3, read-out: IC50 for EDC3 probe labeling inhibition)
CC(C)c1cc(C(C)C)c(S(=O)(=O)n2cc(-c3ccc(C(F)(F)F)cc3)nn2)c(C(C)C)c1 [AHL-003] | largely inactive |  |  | 
COc1ccc(S(=O)(=O)n2cc(CS(C)(=O)=O)nn2)cc1 [AHL-030, 1-((4-Methoxyphenyl)sulfonyl)-4-((methylsulfonyl)methyl)-1H-1,2,3-triazole] | blocked HHS-465 probe labeling of EDC3 in a concentration-dependent manner; also recorded: concentration-dependent binding to recombinant EDC3; also recorded: competition of HHS-465 probe labeling | 5.3 | 5.6e-06 M | 6e-06 M and ~6e-06 M
N#Cc1ccc(S(=O)(=O)n2cc(-c3cccc(Cl)c3)nn2)cc1 [EKT231, 4-((4-(3-Chlorophenyl)-1H-1,2,3-triazol-1-yl)sulfonyl)benzonitrile] | largely inactive |  |  | 
